Literature values in patent US20250339362A1, “SKINCARE SUPPLEMENTS” (Natals, Inc., priority 2024, published 2025).
Where two headings read alike, the source gives them in different places.

Test system: male and female subjects ages 35-64 years
Conditions: 120 mg HA capsule orally once per day, Visioscan

Substance: hyaluronic acid [HA]
- facial skin smoothness: Statistical significance compared to placebo (Week 8): No
- facial skin smoothness: Statistical significance compared to placebo (Week 12): statistically significant reduction in smoothness
